In PubChem BioAssay AID1963980 (Molecular Pharmacology Branch, DTP, NCI, 2024):

Test system: 475296-252-R-J1-PDC spheroid viability
Test: Anticancer human tumor 475296-252-R-J1-PDC patient-derived rectal carcinoma cell line growth inhibition [PI3K]
Conditions: spheroids with HUVEC and MSC; for IC50: curve of first compound; for viability, T/C: stronger effect = lower value
Procedure, shortened: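 Tumor cells were combined with HUVEC and MSCs into spheroids, then dosed with PI3K-inhibitor combinations over half-log ranges capped near clinical Cmax or 10 microM.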

[1] = second compound 0.0316 µM, first compound 0.0316 µM
[2] = second compound 0.0316 µM, first compound 0.1 µM
[3] = second compound 0.1 µM, first compound 0.0316 µM
[4] = second compound 0.1 µM, first compound 0.1 µM
[5] = second compound 0.316 µM, first compound 0.0316 µM
[6] = second compound 0.316 µM, first compound 0.1 µM
[7] = second compound 1 µM, first compound 0.0316 µM
[8] = second compound 1 µM, first compound 0.1 µM
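Further: spheroids exposed to agents for seven days before readout.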

How did the IC50 (second compound 0.00316 µM) turn out when `CC(=O)c1c(C)c2cnc(Nc3ccc(N4CCNCC4)cn3)nc2n(C2CCCC2)c1=O` + CC(Nc1ccc2c(c1)OCCn1cc(N3C(=O)OCC3C(F)F)nc1-2)C(N)=O was run?
Its IC50 is over 0.1 µM.

What about the IC50 (second compound 0.01 µM) of the same compound?
The IC50 was over 0.1 µM.

And the IC50 (second compound 0.0316 µM)?
The IC50 was over 0.1 µM.

What about the IC50 (second compound 0.1 µM) of the same compound?
Its IC50 is over 0.1 µM.

What about the IC50 (second compound 0.316 µM) of the same compound?
The IC50 was over 0.1 µM.

And the IC50 (second compound 1 µM)?
The IC50 was over 0.1 µM.

And the viability, T/C (second compound 0.00316 µM, first compound 0.000316 µM)?
Its viability, T/C is 93.5%.

And the viability, T/C (second compound 0.00316 µM, first compound 0.001 µM)?
The viability, T/C was 86.6%.

And the viability, T/C (second compound 0.00316 µM, first compound 0.00316 µM)?
Its viability, T/C is 101%.

And the viability, T/C (second compound 0.00316 µM, first compound 0.01 µM)?
Its viability, T/C is 93.5%.

And the viability, T/C (second compound 0.00316 µM, first compound 0.0316 µM)?
Its viability, T/C is 119%.

And the viability, T/C (second compound 0.00316 µM, first compound 0.1 µM)?
Its viability, T/C is 97.2%.

What about the viability, T/C (second compound 0.01 µM, first compound 0.000316 µM) of the same compound?
Its viability, T/C is 102%.

What about the viability, T/C (second compound 0.01 µM, first compound 0.001 µM) of the same compound?
Its viability, T/C is 91.3%.

What about the viability, T/C (second compound 0.01 µM, first compound 0.00316 µM) of the same compound?
The viability, T/C was 94%.

And the viability, T/C (second compound 0.01 µM, first compound 0.01 µM)?
Its viability, T/C is 83.2%.

What about the viability, T/C (second compound 0.01 µM, first compound 0.0316 µM) of the same compound?
Its viability, T/C is 97%.

What about the viability, T/C (second compound 0.01 µM, first compound 0.1 µM) of the same compound?
The viability, T/C was 100%.

And the viability, T/C (second compound 0.0316 µM, first compound 0.000316 µM)?
The viability, T/C was 97.5%.

And the viability, T/C (second compound 0.0316 µM, first compound 0.001 µM)?
Its viability, T/C is 101%.

And the viability, T/C (second compound 0.0316 µM, first compound 0.00316 µM)?
Its viability, T/C is 91.3%.

And the viability, T/C (second compound 0.0316 µM, first compound 0.01 µM)?
Its viability, T/C is 93.5%.

And the viability, T/C [1]?
The viability, T/C was 104%.

And the viability, T/C [2]?
Its viability, T/C is 110%.

And the viability, T/C (second compound 0.1 µM, first compound 0.000316 µM)?
The viability, T/C was 90.4%.

What about the viability, T/C (second compound 0.1 µM, first compound 0.001 µM) of the same compound?
Its viability, T/C is 91.8%.

What about the viability, T/C (second compound 0.1 µM, first compound 0.00316 µM) of the same compound?
Its viability, T/C is 100%.

What about the viability, T/C (second compound 0.1 µM, first compound 0.01 µM) of the same compound?
The viability, T/C was 103%.

And the viability, T/C [3]?
The viability, T/C was 96.1%.

And the viability, T/C [4]?
Its viability, T/C is 88.6%.

And the viability, T/C (second compound 0.316 µM, first compound 0.000316 µM)?
Its viability, T/C is 93.5%.

What about the viability, T/C (second compound 0.316 µM, first compound 0.001 µM) of the same compound?
Its viability, T/C is 96.2%.

What about the viability, T/C (second compound 0.316 µM, first compound 0.00316 µM) of the same compound?
The viability, T/C was 83%.

What about the viability, T/C (second compound 0.316 µM, first compound 0.01 µM) of the same compound?
The viability, T/C was 85.4%.

And the viability, T/C [5]?
The viability, T/C was 109%.

What about the viability, T/C [6] of the same compound?
The viability, T/C was 91.7%.

And the viability, T/C (second compound 1 µM, first compound 0.000316 µM)?
The viability, T/C was 85.4%.

And the viability, T/C (second compound 1 µM, first compound 0.001 µM)?
The viability, T/C was 90.1%.

What about the viability, T/C (second compound 1 µM, first compound 0.00316 µM) of the same compound?
The viability, T/C was 87.2%.

And the viability, T/C (second compound 1 µM, first compound 0.01 µM)?
Its viability, T/C is 91.2%.

What about the viability, T/C [7] of the same compound?
The viability, T/C was 93.2%.

What about the viability, T/C [8] of the same compound?
The viability, T/C was 100%.

Which IC50 (second compound 0.0316 µM) does the source give for `CNC(=O)c1ccc(N2C(=S)N(c3ccc(C#N)c(C(F)(F)F)c3)C(=O)C2(C)C)cc1F` + CC(Nc1ncnc2nc[nH]c12)c1cc2cccc(Cl)c2c(=O)n1-c1ccccc1 here?
Its IC50 is over 10 µM.

What about the IC50 (second compound 0.1 µM) of the same compound?
Its IC50 is over 10 µM.

What about the IC50 (second compound 0.316 µM) of the same compound?
The IC50 was over 10 µM.

What about the IC50 (second compound 1 µM) of the same compound?
The IC50 was over 10 µM.

What about the IC50 (second compound 3.16 µM) of the same compound?
Its IC50 is over 10 µM.

What about the IC50 (second compound 10 µM) of the same compound?
Its IC50 is over 10 µM.

What about the viability, T/C [1] of the same compound?
The viability, T/C was 90.9%.

What about the viability, T/C [2] of the same compound?
The viability, T/C was 92.1%.

And the viability, T/C (second compound 0.0316 µM, first compound 0.316 µM)?
The viability, T/C was 107%.

What about the viability, T/C (second compound 0.0316 µM, first compound 1 µM) of the same compound?
The viability, T/C was 92.6%.

And the viability, T/C (second compound 0.0316 µM, first compound 3.16 µM)?
Its viability, T/C is 101%.

What about the viability, T/C (second compound 0.0316 µM, first compound 10 µM) of the same compound?
Its viability, T/C is 85.7%.

And the viability, T/C [3]?
The viability, T/C was 97.6%.

What about the viability, T/C [4] of the same compound?
The viability, T/C was 99.6%.

What about the viability, T/C (second compound 0.1 µM, first compound 0.316 µM) of the same compound?
The viability, T/C was 93.4%.

What about the viability, T/C (second compound 0.1 µM, first compound 1 µM) of the same compound?
Its viability, T/C is 109%.

What about the viability, T/C (second compound 0.1 µM, first compound 3.16 µM) of the same compound?
Its viability, T/C is 109%.

And the viability, T/C (second compound 0.1 µM, first compound 10 µM)?
The viability, T/C was 106%.

And the viability, T/C [5]?
The viability, T/C was 94.9%.

What about the viability, T/C [6] of the same compound?
Its viability, T/C is 104%.

And the viability, T/C (second compound 0.316 µM, first compound 0.316 µM)?
Its viability, T/C is 106%.

What about the viability, T/C (second compound 0.316 µM, first compound 1 µM) of the same compound?
Its viability, T/C is 98.4%.

What about the viability, T/C (second compound 0.316 µM, first compound 3.16 µM) of the same compound?
Its viability, T/C is 107%.

What about the viability, T/C (second compound 0.316 µM, first compound 10 µM) of the same compound?
Its viability, T/C is 96.2%.

What about the viability, T/C [7] of the same compound?
The viability, T/C was 97%.

What about the viability, T/C [8] of the same compound?
The viability, T/C was 92.1%.

What about the viability, T/C (second compound 1 µM, first compound 0.316 µM) of the same compound?
Its viability, T/C is 102%.

What about the viability, T/C (second compound 1 µM, first compound 1 µM) of the same compound?
The viability, T/C was 92.4%.

And the viability, T/C (second compound 1 µM, first compound 3.16 µM)?
The viability, T/C was 99.2%.

What about the viability, T/C (second compound 1 µM, first compound 10 µM) of the same compound?
Its viability, T/C is 99.7%.

What about the viability, T/C (second compound 3.16 µM, first compound 0.0316 µM) of the same compound?
Its viability, T/C is 89.4%.

What about the viability, T/C (second compound 3.16 µM, first compound 0.1 µM) of the same compound?
Its viability, T/C is 114%.

And the viability, T/C (second compound 3.16 µM, first compound 0.316 µM)?
Its viability, T/C is 94%.

What about the viability, T/C (second compound 3.16 µM, first compound 1 µM) of the same compound?
The viability, T/C was 103%.

And the viability, T/C (second compound 3.16 µM, first compound 3.16 µM)?
The viability, T/C was 101%.

What about the viability, T/C (second compound 3.16 µM, first compound 10 µM) of the same compound?
Its viability, T/C is 93.2%.

And the viability, T/C (second compound 10 µM, first compound 0.0316 µM)?
Its viability, T/C is 103%.

What about the viability, T/C (second compound 10 µM, first compound 0.1 µM) of the same compound?
The viability, T/C was 92%.

What about the viability, T/C (second compound 10 µM, first compound 0.316 µM) of the same compound?
The viability, T/C was 93%.

What about the viability, T/C (second compound 10 µM, first compound 1 µM) of the same compound?
The viability, T/C was 96.6%.

And the viability, T/C (second compound 10 µM, first compound 3.16 µM)?
The viability, T/C was 107%.

What about the viability, T/C (second compound 10 µM, first compound 10 µM) of the same compound?
The viability, T/C was 109%.
